The molecules below were run against T1, Human Factor XIIa (Homo sapiens, UniProt P00748) (assay: Determination of FXIIa inhibition (fluorogenic substrate H-DPro-Phe-Arg-AFC, IC50 assay)). Details: substrate at Km concentration, 25° C.; category scale; read-out: Human FXII IC50 (nm).
T1 construct: Proteolytic cleavage of FXII to heavy and light chains of FXIIa dramatically increases catalytic activity; purchased Enzyme Research Laboratories
T1 sequence (P00748 373-615 limits assumed): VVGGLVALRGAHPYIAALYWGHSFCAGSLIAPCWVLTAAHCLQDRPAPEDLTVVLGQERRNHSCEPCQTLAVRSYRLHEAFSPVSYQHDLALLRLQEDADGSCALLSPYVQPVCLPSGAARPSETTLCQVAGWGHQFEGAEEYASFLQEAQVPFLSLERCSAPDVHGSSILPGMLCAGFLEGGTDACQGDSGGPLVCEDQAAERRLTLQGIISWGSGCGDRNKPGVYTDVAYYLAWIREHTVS
T1 sequence (P00748 20-372 partner limits assumed): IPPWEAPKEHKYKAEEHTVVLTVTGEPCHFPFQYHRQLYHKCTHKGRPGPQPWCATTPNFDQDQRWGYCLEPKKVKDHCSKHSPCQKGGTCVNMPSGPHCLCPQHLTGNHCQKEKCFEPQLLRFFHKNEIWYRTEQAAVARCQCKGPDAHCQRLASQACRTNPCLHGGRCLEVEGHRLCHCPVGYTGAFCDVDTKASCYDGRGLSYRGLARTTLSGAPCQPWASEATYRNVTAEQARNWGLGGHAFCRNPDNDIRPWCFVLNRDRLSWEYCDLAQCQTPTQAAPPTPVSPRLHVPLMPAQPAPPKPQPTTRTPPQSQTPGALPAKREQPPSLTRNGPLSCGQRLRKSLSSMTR
Assay type: biochemical
Summary of the method: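 Human FXIIa incubated at 25° C. with fluorogenic H-DPro-Phe-Arg-AFC at its Km concentration plus varying compound levels. Linear fluorescence increase over 5 min taken as % activity; IC50 is concentration halving uninhibited activity.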

Structure (SMILES) | IC50 [nM]
Nc1nccc2c(NCC34CC(COc5cc6n(c(=O)c5)CCC6)(CCO3)C4)cccc12 [Example 10972, 7-((1-(((1-aminoisoquinolin-5-yl)amino)methyl)-2-oxabicyclo[3.1.1]heptan-5-yl)methoxy)-2,3-dihydroindolizin-5(1H)-one] | 10 to 100
COc1cccc(CCC(=O)N2CC3(COc4ccn(C)c(=O)c4)CC2(CNc2cccc4c(N)nccc24)C3)c1 [Example 12042, 4-((1-(((1-aminoisoquinolin-5-yl)amino)methyl)-2-(3-(3-methoxyphenyl)propanoyl)-2-azabicyclo[2.1.1]hexan-4-yl)methoxy)-1-methylpyridin-2(1H)-one] | 10 to 100
Nc1nccc2c(NCC34CC(COc5ccccc5N5CCCC5=O)(CO3)C4)cccc12 [Example 6654, 1-(2-((1-(((1-aminoisoquinolin-5-yl)amino)methyl)-2-oxabicyclo[2.1.1]hexan-4-yl)methoxy)phenyl)pyrrolidin-2-one] | 10000 to 40000
Nc1nccc2c(NCC34CC(Cn5nccn5)(CO3)C4)cccc12 [Example 6647, N5-((4-((2H-1,2,3-triazol-2-yl)methyl)-2-oxabicyclo[2.1.1]hexan-1-yl)methyl)isoquinoline-1,5-diamine] | 40000 to 100000
Nc1nccc2c(NCC34CC(COc5ccn(C(F)F)c(=O)c5)(CCO3)C4)cccc12 [Example 10975, 4-((1-(((1-aminoisoquinolin-5-yl)amino)methyl)-2-oxabicyclo[3.1.1]heptan-5-yl)methoxy)-1-(difluoromethyl)pyridin-2(1H)-one] | 300 to 1000
COC(=O)N1CC2(COc3ccn(C)c(=O)c3)CC1(CNc1ccc3c(N)nccc3c1)C2 [Example 12013, methyl 1-(((1-aminoisoquinolin-6-yl)amino)methyl)-4-(((1-methyl-2-oxo-1,2-dihydropyridin-4-yl)oxy)methyl)-2-azabicyclo[2.1.1]hexane-2-carboxylate] | 300 to 1000
Cn1ccc(OCC23CN(C(=O)Oc4ccccc4Cl)C(CNc4cccc5c(N)nccc45)(C2)C3)cc1=O [Example 12015, 2-chlorophenyl 1-(((1-aminoisoquinolin-5-yl)amino)methyl)-4-(((1-methyl-2-oxo-1,2-dihydropyridin-4-yl)oxy)methyl)-2-azabicyclo[2.1.1]hexane-2-carboxylate] | 10 to 100
Cn1cc(COC(=O)N2CC3(COc4ccn(C)c(=O)c4)CC2(CNc2cccc4c(N)nccc24)C3)cn1 [Example 12026, (1-methyl-1H-pyrazol-4-yl)methyl 1-(((1-aminoisoquinolin-5-yl)amino)methyl)-4-(((1-methyl-2-oxo-1,2-dihydropyridin-4-yl)oxy)methyl)-2-azabicyclo[2.1.1]hexane-2-carboxylate] | 100 to 300
Nc1nccc2c(NCC34CC(COc5ccc6c(c5)CCNC6=O)(CCO3)C4)cccc12 [Example 10938, 6-((1-(((1-aminoisoquinolin-5-yl)amino)methyl)-2-oxabicyclo[3.1.1]heptan-5-yl)methoxy)-3,4-dihydroisoquinolin-1(2H)-one] | 300 to 1000
CC(C)n1ccc(OCC23CCOC(CNc4cccc5c(N)nccc45)(C2)C3)cc1=O [Example 10934, 4-((1-(((1-aminoisoquinolin-5-yl)amino)methyl)-2-oxabicyclo[3.1.1]heptan-5-yl)methoxy)-1-isopropylpyridin-2(1H)-one] | 300 to 1000
Nc1nccc2c(NCC34CC(COc5ccc6ncoc6c5)(CCO3)C4)cccc12 [Example 10973, N5-((5-((benzo[d]oxazol-6-yloxy)methyl)-2-oxabicyclo[3.1.1]heptan-1-yl)methyl)isoquinoline-1,5-diamine] | 1000 to 3000
CC1(C)OC2(COc3cccc4c(N)nccc34)CC1(COc1ccn3ccnc3c1)C2 [Example 7702, 5-((4-((imidazo[1,2-a]pyridin-7-yloxy)methyl)-3,3-dimethyl-2-oxabicyclo[2.1.1]hexan-1-yl)methoxy)isoquinolin-1-amine] | 300 to 1000
Nc1nccc2c(NCC34CC(COc5ccn6c(C(F)(F)F)cnc6c5)(CCO3)C4)cccc12 [Example 10932, N5-((5-(((3-(trifluoromethyl)imidazo[1,2-a]pyridin-7-yl)oxy)methyl)-2-oxabicyclo[3.1.1]heptan-1-yl)methyl)isoquinoline-1,5-diamine] | 100 to 300
CN1Cc2ccc(OCC34CN(C(=O)OCc5ccccc5)C(CNc5cccc6c(N)nccc56)(C3)C4)cc2C1=O [Example 12012, benzyl 1-(((1-aminoisoquinolin-5-yl)amino)methyl)-4-(((2-methyl-3-oxoisoindolin-5-yl)oxy)methyl)-2-azabicyclo[2.1.1]hexane-2-carboxylate] | 100 to 300
Cn1ccc(OCC23CN(C(=O)CCc4cccc(C(=O)O)c4)C(CNc4cccc5c(N)nccc45)(C2)C3)cc1=O [Example 12051, 3-(3-(1-(((1-aminoisoquinolin-5-yl)amino)methyl)-4-(((1-methyl-2-oxo-1,2-dihydropyridin-4-yl)oxy)methyl)-2-azabicyclo[2.1.1]hexan-2-yl)-3-oxopropyl)benzoic acid] | 10 to 100
Nc1nccc2c(NCC34CC(Cn5ccnn5)(CO3)C4)cccc12 [Example 6648, N5-((4-((1H-1,2,3-triazol-1-yl)methyl)-2-oxabicyclo[2.1.1]hexan-1-yl)methyl)isoquinoline-1,5-diamine] | 10000 to 40000
Cn1ccc(OCC23CN(C(=O)CCc4cccc5cnccc45)C(CNc4cccc5c(N)nccc45)(C2)C3)cc1=O [Example 12047, 4-((1-(((1-aminoisoquinolin-5-yl)amino)methyl)-2-(3-(isoquinolin-5-yl)propanoyl)-2-azabicyclo[2.1.1]hexan-4-yl)methoxy)-1-methylpyridin-2(1H)-one] | 10 to 100
Nc1nccc2c(NCC34CC(COc5ccn6ncnc6c5)(C3)C4)cccc12 [Example 1110, N5-((3-(([1,2,4]triazolo[1,5-a]pyridin-7-yloxy)methyl)bicyclo[1.1.1]pentan-1-yl)methyl)isoquinoline-1,5-diamine] | 3000 to 10000
Nc1nccc2c(NCC34CC(COc5ccc6nncn6c5)(CO3)C4)cccc12 [Example 6634, N5-((4-(([1,2,4]triazolo[4,3-a]pyridin-6-yloxy)methyl)-2-oxabicyclo[2.1.1]hexan-1-yl)methyl)isoquinoline-1,5-diamine] | 1000 to 3000
Cn1ccc(OCC23CN(c4cccnc4)C(CNc4cccc5c(N)nccc45)(C2)C3)cc1=O [Example 12064, 4-((1-(((1-aminoisoquinolin-5-yl)amino)methyl)-2-(pyridin-3-yl)-2-azabicyclo[2.1.1]hexan-4-yl)methoxy)-1-methylpyridin-2(1H)-one] | 10 to 100
Cc1cn2cc(OCC34COC(CNc5cccc6c(N)nccc56)(C3)C4)ccc2n1 [Example 6633, N5-((4-(((2-methylimidazo[1,2-a]pyridin-6-yl)oxy)methyl)-2-oxabicyclo[2.1.1]hexan-1-yl)methyl)isoquinoline-1,5-diamine] | 100 to 300
Cc1cnc2ccc(OCC34COC(CNc5ccnc(N)c5)(C3)C4)cn12 [Example 6660, N4-((4-(((3-methylimidazo[1,2-a]pyridin-6-yl)oxy)methyl)-2-oxabicyclo[2.1.1]hexan-1-yl)methyl)pyridine-2,4-diamine] | 3000 to 10000
c1cc2cc(NCC34CC(COc5ccn6ccnc6c5)(CCO3)C4)ccc2cn1 [Example 10958, N-((5-((imidazo[1,2-a]pyridin-7-yloxy)methyl)-2-oxabicyclo[3.1.1]heptan-1-yl)methyl)isoquinolin-6-amine] | 10000 to 40000
Cn1ccc(OCC23CN(c4nc5ccccc5o4)C(CNc4cccc5c(N)nccc45)(C2)C3)cc1=O [Example 12057, 4-((1-(((1-Aminoisoquinolin-5-yl)amino)methyl)-2-(benzo[d]oxazol-2-yl)-2-azabicyclo[2.1.1]hexan-4-yl)methoxy)-1-methylpyridin-2(1H)-one] | 1 to 10
Nc1nccc2c(NCC34CC(COc5ccn6c(C(F)(F)F)nnc6c5)(CCO3)C4)cccc12 [Example 10961, N5-((5-(((3-(trifluoromethyl)-[1,2,4]triazolo[4,3-a]pyridin-7-yl)oxy)methyl)-2-oxabicyclo[3.1.1]heptan-1-yl)methyl)isoquinoline-1,5-diamine] | 300 to 1000
CN1CCc2cc(OCC34CCOC(CNc5cccc6c(N)nccc56)(C3)C4)ccc2C1=O [Example 10939, 6-((1-(((1-aminoisoquinolin-5-yl)amino)methyl)-2-oxabicyclo[3.1.1]heptan-5-yl)methoxy)-2-methyl-3,4-dihydroisoquinolin-1(2H)-one] | 300 to 1000
Nc1nccc2c(NCC34CC(COc5cccc(N6CCCC6=O)c5)(CO3)C4)cccc12 [Example 6653, 1-(3-((1-(((1-aminoisoquinolin-5-yl)amino)methyl)-2-oxabicyclo[2.1.1]hexan-4-yl)methoxy)phenyl)pyrrolidin-2-one] | 300 to 1000
Cc1cn(C)c(=O)nc1OCC12CCOC(CNc3cccc4c(N)nccc34)(C1)C2 [Example 10962, 4-((1-(((1-aminoisoquinolin-5-yl)amino)methyl)-2-oxabicyclo[3.1.1]heptan-5-yl)methoxy)-1,5-dimethylpyrimidin-2(1H)-one] | 1000 to 3000
